Data: patent US9820972B2, “Antiviral compounds highly effective as HCV-NS5A inhibitor” (priority 2013, dated 2017)
Read-outs that look alike come from different tables or passages of the source.

System: GT-1a of NS5A Replicon
Assay: HCV double reporter gene (Renilla luciferase) replicon assay, GT-1a
Format: cell-based, Hepatitis C virus (HCV)
Conditions: Hepatitis C virus, GT1A, read-out: EC50 For GT-1a of NS5A Replicon
Protocol: Antiviral Assay for Inhibition Activity (EC50):
The study is completed by a new constructed double reporter genes replicon assay system, the capacity of viral replicon in infected cell is determined by detecting the reporter gene Renilla luciferase. The relationship of reporter genes, HCV RNA replicon and viral proteins is well linear. 8 gradient concentrations for 2-fold dilution, 3 wells, 3 times repetition and 1 or 2 control drugs are set to finally determine EC50 of compound.
THF was distilled from sodium metal and benzophenone. DCM, pentane and hexane were distilled form calcium hydride. Special raw material and intermediate in the invention were ordered by contract synthesis from Zannan SciTech Co., Let in China, others reagents were purchased from Shanghai reagent company, Aldrich, Acros etc. As intermediates or products during the synthesis is not required for the reaction and other tests the next step, the synthesis is repeated until a sufficient number of times. The invention of the prepared compounds of […] (HCV NS5A) inhibitory activity test was performed by CRO service units such as WuXi AppTec etc.

| Compound | EC50 (GT-1a replicon, class symbols) | EC50 |
| --- | --- | --- |
| COC(=O)N[C@@H](C(=O)N1CC=C[C@H]1c1ncc(-c2ccc(-c3cc4sc(-c5cnc([C@@H]6CCCN6C(=O)[C@H](NC(=O)OC)c6ccccc6)[nH]5)cc4s3)cc2)[nH]1)c1ccccc1 [Compound 6fh] | 0.001 to 0.999 nM |  |
| COC(=O)N[C@H](C(=O)N1CCC[C@H]1c1ncc(-c2cc3sc(-c4ccc(-c5cnc([C@@H]6C=CCN6C(=O)[C@H](NC(=O)OC)c6ccccc6)[nH]5)cc4)cc3s2)[nH]1)C(C)C [Compound 6fj] | 0.001 to 0.999 nM |  |
| COC(=O)N[C@@H](C(=O)N1CC=C[C@H]1c1ncc(-c2cc3sc(-c4ccc(-c5cnc([C@@H]6CCCN6C(=O)[C@H](NC(=O)OC)c6ccccc6)[nH]5)cc4)cc3s2)[nH]1)c1ccccc1 [Compound 6fk] | 0.001 to 0.999 nM |  |
| COC(=O)N[C@H](C(=O)N1CC=C[C@H]1c1ncc(-c2cc3sc(-c4ccc(-c5cnc([C@@H]6CCCN6C(=O)[C@@H](NC(=O)OC)C(C)C)[nH]5)cc4)cc3s2)[nH]1)C(C)C [Compound 6fn] | 0.001 to 0.999 nM |  |
| COC(=O)N[C@H](C(=O)N1CC=CC1c1ncc(-c2ccc(-c3csc4c(-c5c[nH]c([C@@H]6CCCN6C(=O)[C@@H](NC(=O)OC)C(C)C)n5)csc34)cc2)[nH]1)C(C)C (stereo partly drawn) [Compound 6fq] | 0.001 to 0.999 nM |  |
| COC(=O)N[C@H](C(=O)N1CCC[C@H]1c1nc(-c2csc3c(-c4ccc(-c5cnc(C6C=CCN6C(=O)[C@H](NC(=O)OC)c6ccccc6)[nH]5)cc4)csc23)c[nH]1)C(C)C (stereo partly drawn) [Compound 6fr] | 0.001 to 0.999 nM |  |
| COC(=O)N[C@@H](C(=O)N1CC=CC1c1ncc(-c2ccc(-c3csc4c(-c5c[nH]c([C@@H]6CCCN6C(=O)[C@H](NC(=O)OC)c6ccccc6)n5)csc34)cc2)[nH]1)c1ccccc1 (stereo partly drawn) [Compound 6fs] | 0.001 to 0.999 nM |  |
| COC(=O)N[C@H](C(=O)N1CC=CC1c1ncc(-c2ccc(-c3csc4c(-c5c[nH]c([C@@H]6CCCN6C(=O)[C@H](NC(=O)OC)c6ccccc6)n5)csc34)cc2)[nH]1)C(C)C (stereo partly drawn) [Compound 6ft] | 0.001 to 0.999 nM |  |
| COC(=O)NC(C(=O)N1CC=C[C@H]1c1ncc(-c2ccc(-c3cc4sc(-c5cnc([C@@H]6CCCN6C(=O)[C@H](NC(=O)OC)c6ccccc6)[nH]5)cc4o3)cc2)[nH]1)c1ccccc1 (stereo partly drawn) [Compound 6fw] | 0.001 to 0.999 nM |  |
| COC(=O)N[C@@H](C(=O)N1CC=C[C@H]1c1ncc(-c2ccc(-c3cc4sc(-c5cnc([C@@H]6CCCN6C(=O)[C@H](NC(=O)OC)c6ccccc6)[nH]5)cc4[nH]3)cc2)[nH]1)c1ccccc1 [Compound 6fx] | 0.001 to 0.999 nM |  |
| COC(=O)N[C@H](C(=O)N1CC=C[C@H]1c1nc(-c2csc3c(-c4ccc(-c5c[nH]c(C6CCCN6C(=O)[C@H](NC(=O)OC)c6ccccc6)n5)cc4)csc23)c[nH]1)C(C)C (stereo partly drawn) [Compound 6fy] | 0.001 to 0.999 nM |  |
| CC(C)[C@H](NC(=O)OC1CCCC1)C(=O)N1C[C@H](OC(=O)N2Cc3ccc4c(c3C2)OCO4)C[C@H]1c1nc(-c2ccc(-c3ccc(-c4cnc([C@@H]5C[C@@H](OC(=O)N6Cc7ccc8c(c7C6)OCO8)CN5C(=O)[C@@H](NC(=O)OC5CCCC5)C(C)C)[nH]4)cc3)cc2)c[nH]1 [Compound 6g] |  | > 50 nM |
| CC(C)[C@H](NC(=O)OC1CCCC1)C(=O)N1CCC[C@H]1c1nc(-c2ccc(-c3ccc(-c4cnc([C@@H]5C[C@@H](OC(=O)N6Cc7ccc8c(c7C6)OCO8)CN5C(=O)[C@@H](NC(=O)OC5CCCC5)C(C)C)[nH]4)cc3)cc2)c[nH]1 [Compound 6h] | > 50 nM |  |
| COC(=O)N[C@H](C(=O)N1C[C@H](OC(=O)N2Cc3cc4c(cc3C2)OCO4)CC1c1ncc(-c2ccc(-c3ccc(-c4c[nH]c([C@@H]5CCCN5C(=O)[C@@H](NC(=O)OC)C(C)C)n4)cc3)cc2)[nH]1)C(C)C (stereo partly drawn) [Compound 6i] | 0.001 to 0.999 nM |  |
| CC(C)[C@H](NC(=O)OC(C)(C)C)C(=O)N1CCC[C@H]1c1nc(-c2ccc(-c3ccc(-c4cnc([C@@H]5C[C@@H](OC(=O)N6Cc7cc8c(cc7C6)OCO8)CN5C(=O)[C@@H](NC(=O)OC(C)(C)C)C(C)C)[nH]4)cc3)cc2)c[nH]1 [Compound 6j] | > 50 nM |  |
| CC(C)(C)OC(=O)N[C@H](C(=O)N1CCC[C@H]1c1nc(-c2ccc(-c3ccc(-c4cnc([C@@H]5C[C@@H](OC(=O)N6Cc7cc8c(cc7C6)OCO8)CN5C(=O)[C@@H](NC(=O)OC(C)(C)C)C(C)(C)C)[nH]4)cc3)cc2)c[nH]1)C(C)(C)C [Compound 6k] | > 50 nM |  |
| COC(=O)N[C@H](C(=O)N1CCC[C@H]1c1nc(-c2ccc(-c3ccc(-c4cnc([C@@H]5C[C@@H](OC(=O)N6Cc7cc8c(cc7C6)OCO8)CN5C(=O)[C@@H](NC(=O)OC(C)(C)C)C(C)C)[nH]4)cc3)cc2)c[nH]1)C(C)C [Compound 6m] | 1 to 49.9 nM |  |
| COC(=O)N[C@H](C(=O)N1C[C@H](OC(=O)N2Cc3cc4c(cc3C2)OCO4)C[C@H]1c1nc(-c2ccc(-c3ccc(-c4cnc([C@@H]5C[C@@H](OC(=O)N6Cc7cc8c(cc7C6)OCO8)CN5C(=O)[C@@H](NC(=O)OC)C(C)C)[nH]4)cc3)cc2)c[nH]1)C(C)C [Compound 6n] |  | > 50 nM |
| CC(C)[C@H](NC(=O)OC(C)(C)C)C(=O)N1C[C@H](OC(=O)N2Cc3cc4c(cc3C2)OCO4)C[C@H]1c1nc(-c2ccc(-c3ccc(-c4cnc([C@@H]5C[C@@H](OC(=O)N6Cc7cc8c(cc7C6)OCO8)CN5C(=O)[C@@H](NC(=O)OC(C)(C)C)C(C)C)[nH]4)cc3)cc2)c[nH]1 [Compound 6p] |  | > 50 nM |
| CC(C)[C@H](NC(=O)OC1CCCC1)C(=O)N1C[C@H](OC(=O)N2Cc3cc4c(cc3C2)OCO4)C[C@H]1c1nc(-c2ccc(-c3ccc(-c4cnc([C@@H]5C[C@@H](OC(=O)N6Cc7cc8c(cc7C6)OCO8)CN5C(=O)[C@@H](NC(=O)OC5CCCC5)C(C)C)[nH]4)cc3)cc2)c[nH]1 [Compound 6q] |  | > 50 nM |
| CC(C)[C@H](NC(=O)OC1CCCC1)C(=O)N1CCC[C@H]1c1nc(-c2ccc(-c3ccc(-c4cnc([C@@H]5C[C@@H](OC(=O)N6Cc7cc8c(cc7C6)OCO8)CN5C(=O)[C@@H](NC(=O)OC5CCCC5)C(C)C)[nH]4)cc3)cc2)c[nH]1 [Compound 6r] | > 50 nM |  |
| COC(=O)N[C@H](C(=O)N1CCC[C@H]1c1nc(-c2ccc(-c3ccc(-c4cnc([C@@H]5C[C@@H](OC(=O)N6Cc7cccc(F)c7C6)CN5C(=O)[C@@H](NC(=O)OC)C(C)C)[nH]4)cc3)cc2)c[nH]1)C(C)C [Compound 6s] | 0.001 to 0.999 nM |  |
| CC(C)[C@H](NC(=O)OC(C)(C)C)C(=O)N1C[C@H](OC(=O)N2Cc3cccc(F)c3C2)CC1c1ncc(-c2ccc(-c3ccc(-c4c[nH]c([C@@H]5CCCN5C(=O)[C@@H](NC(=O)OC(C)(C)C)C(C)C)n4)cc3)cc2)[nH]1 (stereo partly drawn) [Compound 6t] | > 50 nM |  |
| COC(=O)N[C@H](C(=O)N1CCC[C@H]1c1nc(-c2ccc(-c3ccc(-c4cnc([C@@H]5C[C@@H](OC(=O)N6Cc7cccc(F)c7C6)CN5C(=O)[C@@H](NC(=O)OC(C)(C)C)C(C)C)[nH]4)cc3)cc2)c[nH]1)C(C)C [Compound 6u] | 1 to 49.9 nM |  |
| CC(C)[C@H](NC(=O)OC1CCCC1)C(=O)N1CCC[C@H]1c1nc(-c2ccc(-c3ccc(-c4cnc([C@@H]5C[C@@H](OC(=O)N6Cc7cccc(F)c7C6)CN5C(=O)[C@@H](NC(=O)OC5CCCC5)C(C)C)[nH]4)cc3)cc2)c[nH]1 [Compound 6v] | > 50 nM |  |
| COC(=O)N[C@H](C(=O)N1CCCC1c1nc(-c2ccc(-c3ccc(-c4c[nH]c([C@@H]5CCCN5C(=O)C5(NC(=O)OC)CC5)n4)cc3)cc2)c[nH]1)C(C)C (stereo partly drawn) [Compound 6y] | 0.001 to 0.999 nM |  |
| COC(=O)N[C@H](C(=O)N1CCCC1c1nc(-c2ccc(-c3ccc(-c4c[nH]c([C@@H]5CCCN5C(=O)C5(NC(=O)OC)CCCC5)n4)cc3)cc2)c[nH]1)C(C)C (stereo partly drawn) [Compound 6z] | 0.001 to 0.999 nM |  |
